Legend:
Assay in all cases: relative viability (nuclei count vs DMSO), 5 days (fraction); higher = more cells survive
NCI-H1792 = system: NCI-H1792
Summary of the method: (§1)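 After 5 days of treatment, lung cancer cells in 1536-well plates were fixed and stained in a single step (final 0.05% Triton X-100, 1% formaldehyde, 1 ug/ml Hoechst) and their nuclei counted on 4× images. Treatment had been applied by pin tool the day after seeding as one drug alone or as a fixed anchor-drug dose with five library-drug doses (not always all listed) in √10 steps. Relative viability is the nuclei count of treated wells divided by that of vehicle wells, and values are medians of duplicate plates.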

NCI-H838 = system: NCI-H838
Summary of the method: as §1

HCC-44 = system: HCC-44
Summary of the method: as §1

NCI-H650 = system: NCI-H650
Summary of the method: as §1

NCI-H358 = system: NCI-H358
Summary of the method: as §1

EKVX = system: EKVX
Summary of the method: as §1

NCI-H23 = system: NCI-H23
Summary of the method: as §1

NCI-H1650 = system: NCI-H1650
Summary of the method: as §1

NCI-H441 = system: NCI-H441
Summary of the method: as §1

HCC-15 = system: HCC-15
Summary of the method: as §1

BEN = system: BEN
Summary of the method: as §1

NCI-H2342 = system: NCI-H2342
Summary of the method: as §1

HCC-827 = system: HCC-827
Summary of the method: as §1

NCI-H1437 = system: NCI-H1437
Summary of the method: as §1

A-427 = system: A-427
Summary of the method: as §1

NCI-H1975 = system: NCI-H1975
Summary of the method: as §1

HARA = system: HARA
Summary of the method: as §1

SW 900 = system: SW 900
Summary of the method: as §1

COR-L23 = system: COR-L23
Summary of the method: as §1

SK-MES-1 = system: SK-MES-1
Summary of the method: as §1

201T = system: 201T
Summary of the method: as §1

NCI-H596 = system: NCI-H596
Summary of the method: as §1

CC(=O)O[C@@]12CO[C@@H]1C[C@H](O)[C@@]1(C)C(=O)[C@H](O)C3=C(C)[C@@H](OC(=O)[C@H](O)[C@@H](NC(=O)OC(C)(C)C)c4ccccc4)C[C@@](O)([C@@H](OC(=O)c4ccccc4)[C@H]21)C3(C)C [Docetaxel] + N=C(N)NC(=N)NCCc1ccccc1 [Phenformin] (partner 250 µM)
relative viability (NCI-H1792; first compound 0.0002 µM): 0.221
relative viability (NCI-H1792; first compound 0.000632 µM): 0.23
relative viability (NCI-H1792; first compound 0.002 µM): 0.0848
relative viability (NCI-H1792; first compound 0.006325 µM): 0.126
relative viability (NCI-H1792; first compound 0.02 µM): 0.0575
relative viability (NCI-H838; first compound 0.0002 µM): 0.533
relative viability (NCI-H838; first compound 0.000632 µM): 0.386
relative viability (NCI-H838; first compound 0.002 µM): 0.198
relative viability (NCI-H838; first compound 0.006325 µM): 0.161
relative viability (NCI-H838; first compound 0.02 µM): 0.108
relative viability (HCC-44; first compound 0.0002 µM): 0.185
relative viability (HCC-44; first compound 0.000632 µM): 0.113
relative viability (HCC-44; first compound 0.002 µM): 0.113
relative viability (HCC-44; first compound 0.006325 µM): 0.101
relative viability (HCC-44; first compound 0.02 µM): 0.0735
relative viability (NCI-H650; first compound 0.0002 µM): 0.447
relative viability (NCI-H650; first compound 0.000632 µM): 0.397
relative viability (NCI-H650; first compound 0.002 µM): 0.332
relative viability (NCI-H650; first compound 0.006325 µM): 0.19
relative viability (NCI-H650; first compound 0.02 µM): 0.21
relative viability (NCI-H358; first compound 0.0002 µM): 0.247
relative viability (NCI-H358; first compound 0.000632 µM): 0.188
relative viability (NCI-H358; first compound 0.006325 µM): 0.0907
relative viability (NCI-H358; first compound 0.02 µM): 0.0664
relative viability (EKVX; first compound 0.0002 µM): 0.264
relative viability (EKVX; first compound 0.000632 µM): 0.218
relative viability (EKVX; first compound 0.002 µM): 0.191
relative viability (EKVX; first compound 0.006325 µM): 0.149
relative viability (EKVX; first compound 0.02 µM): 0.137
relative viability (NCI-H23; first compound 0.0002 µM): 0.801
relative viability (NCI-H23; first compound 0.000632 µM): 0.702
relative viability (NCI-H23; first compound 0.002 µM): 0.475
relative viability (NCI-H23; first compound 0.006325 µM): 0.2
relative viability (NCI-H23; first compound 0.02 µM): 0.121
relative viability (NCI-H1650; first compound 0.0002 µM): 0.349
relative viability (NCI-H1650; first compound 0.000632 µM): 0.287
relative viability (NCI-H1650; first compound 0.006325 µM): 0.147
relative viability (NCI-H1650; first compound 0.02 µM): 0.0956
relative viability (NCI-H441; first compound 0.0002 µM): 0.833
relative viability (NCI-H441; first compound 0.000632 µM): 0.889
relative viability (NCI-H441; first compound 0.002 µM): 0.315
relative viability (NCI-H441; first compound 0.006325 µM): 0.281
relative viability (NCI-H441; first compound 0.02 µM): 0.197
relative viability (HCC-15; first compound 0.0002 µM): 0.402
relative viability (HCC-15; first compound 0.000632 µM): 0.315
relative viability (HCC-15; first compound 0.002 µM): 0.181
relative viability (HCC-15; first compound 0.006325 µM): 0.203
relative viability (HCC-15; first compound 0.02 µM): 0.113
relative viability (BEN; first compound 0.0002 µM): 0.248
relative viability (BEN; first compound 0.000632 µM): 0.253
relative viability (BEN; first compound 0.002 µM): 0.307
relative viability (BEN; first compound 0.006325 µM): 0.215
relative viability (BEN; first compound 0.02 µM): 0.194
relative viability (NCI-H2342; first compound 0.0002 µM): 0.478
relative viability (NCI-H2342; first compound 0.000632 µM): 0.596
relative viability (NCI-H2342; first compound 0.002 µM): 0.625
relative viability (NCI-H2342; first compound 0.006325 µM): 0.4
relative viability (NCI-H2342; first compound 0.02 µM): 0.343
relative viability (HCC-827; first compound 0.0002 µM): 0.392
relative viability (HCC-827; first compound 0.000632 µM): 0.426
relative viability (HCC-827; first compound 0.002 µM): 0.357
relative viability (HCC-827; first compound 0.006325 µM): 0.247
relative viability (HCC-827; first compound 0.02 µM): 0.213
relative viability (NCI-H1437; first compound 0.0002 µM): 0.3
relative viability (NCI-H1437; first compound 0.000632 µM): 0.294
relative viability (NCI-H1437; first compound 0.002 µM): 0.23
relative viability (NCI-H1437; first compound 0.006325 µM): 0.154
relative viability (NCI-H1437; first compound 0.02 µM): 0.123
relative viability (A-427; first compound 0.0002 µM): 0.324
relative viability (A-427; first compound 0.000632 µM): 0.328
relative viability (A-427; first compound 0.002 µM): 0.165
relative viability (A-427; first compound 0.006325 µM): 0.149
relative viability (A-427; first compound 0.02 µM): 0.12
relative viability (NCI-H1975; first compound 0.0002 µM): 0.406
relative viability (NCI-H1975; first compound 0.000632 µM): 0.334
relative viability (NCI-H1975; first compound 0.002 µM): 0.209
relative viability (NCI-H1975; first compound 0.006325 µM): 0.148
relative viability (NCI-H1975; first compound 0.02 µM): 0.134
relative viability (HARA; first compound 0.0002 µM): 0.387
relative viability (HARA; first compound 0.000632 µM): 0.19
relative viability (HARA; first compound 0.002 µM): 0.0801
relative viability (HARA; first compound 0.006325 µM): 0.0508
relative viability (HARA; first compound 0.02 µM): 0.0419
relative viability (SW 900; first compound 0.0002 µM): 0.389
relative viability (SW 900; first compound 0.000632 µM): 0.235
relative viability (SW 900; first compound 0.002 µM): 0.262
relative viability (SW 900; first compound 0.006325 µM): 0.167
relative viability (SW 900; first compound 0.02 µM): 0.0976
relative viability (COR-L23; first compound 0.0002 µM): 0.399
relative viability (COR-L23; first compound 0.000632 µM): 0.32
relative viability (COR-L23; first compound 0.002 µM): 0.167
relative viability (COR-L23; first compound 0.006325 µM): 0.106
relative viability (COR-L23; first compound 0.02 µM): 0.098
relative viability (SK-MES-1; first compound 0.0002 µM): 0.664
relative viability (SK-MES-1; first compound 0.000632 µM): 0.667
relative viability (SK-MES-1; first compound 0.002 µM): 0.364
relative viability (SK-MES-1; first compound 0.006325 µM): 0.273
relative viability (SK-MES-1; first compound 0.02 µM): 0.179
relative viability (201T; first compound 0.0002 µM): 0.4
relative viability (201T; first compound 0.000632 µM): 0.366
relative viability (201T; first compound 0.002 µM): 0.36
relative viability (201T; first compound 0.006325 µM): 0.342
relative viability (201T; first compound 0.02 µM): 0.242
relative viability (NCI-H596; first compound 0.0002 µM): 0.827
relative viability (NCI-H596; first compound 0.000632 µM): 0.773
relative viability (NCI-H596; first compound 0.002 µM): 0.635
relative viability (NCI-H596; first compound 0.006325 µM): 0.438
relative viability (NCI-H596; first compound 0.02 µM): 0.235
